This note sets out measurements from the NIST ThermoML archive (doi:10.1021/je050525c).

± gives the expanded uncertainty stated by the source.

The conditions of the data set: Liquid, Ebulliometric method (Recirculating still).

With `CC` [ethane], the “vapor or sublimation pressure” value reads like this: (179.68 K) 77 ± 4 kPa; (190.14 K) 136 ± 4 kPa; (200.68 K) 223 ± 4 kPa; (210.03 K) 336 ± 4 kPa.
The like results for `FC(F)(F)F` [tetrafluoromethane] were, in that order, 679 ± 5 kPa, 1058 ± 6 kPa, 1575 ± 7 kPa and 2163 ± 9 kPa.
